Test results taken from US6417181B1, “Naphthyl-substituted and anilide-substituted sulfonamides” (Bayer Aktiengesellschaft, priority 1998, dated 2002).
pEC50: −log10 of the molar value.

System: human cytomegalovirus (HCMV)
Test: anti-HCMV screening test: spread of the cytopathogenic effect in HELF cell cultures, 96-well microtitre plates
Assay type: cell-based
Conditions: Human betaherpesvirus 5; HCMV-infected HELF cells, CPE, Neutral Red staining
Description: The anti-HCMV action was determined in a screening test system in 96-well microtitre plates with the aid of human embryonic lung fibroblast (HELF) cell cultures. The effect of the substances on the spread of the cytopathogenic effect was determined in comparison with the reference substance ganciclovir (Cymevene® sodium), a clinically approved anti-HCMV chemotherapeutic.
The substances dissolved (50 mM) in DMSO (dimethyl sulphoxide) are investigated on microtitre plates (96-well) in duplicate determinations (4 substances/plate). Toxic and cytostatic substance effects are additionally detected at the same time. After the appropriate substance dilutions (1:2) on the microtitre plate, a suspension of 50-100 HCMV-infected HELF cells and […] non-infected HELF cells in Eagle's MEM with 10% foetal calf serum is added to each well, and the plates are incubated at 37° C. in a CO2 incubator for several days. After this time, the cell lawn in the sub-stance-free virus controls, starting from 50-100 infectious centres, is completely destroyed by the cytopathogenic effect of the HCMV (100% CPE). After staining with Neutral Red and fixing with formalin/methanol, the plates are assessed with the aid of a projection microscope (plaque-viewer).

pEC50	SMILES
7.19	CN(C)c1cccc2c(S(=O)(=O)Nc3ccc(NC(=O)C(C)(C)CF)cc3)cccc12 [Example 13]
7.55	CN(C)c1cccc2c(S(=O)(=O)Nc3ccc(NC(=O)C(C)(C)CCl)cc3)cccc12 [Example 16]
6.06	CN(C)c1cccc2c(S(=O)(=O)Nc3ccc(NC(=O)C(C)(CO)CO)cc3)cccc12 [Example 24]
6.19	CN(C)c1cccc2c(S(=O)(=O)Nc3ccc(NC(=O)C(C)(C)CN)cc3)cccc12 [Example 25]

System: not given
Test: not given
Conditions: not given

melting point	SMILES
248 °C (dec.)	CNc1ccc(S(=O)(=O)Nc2ccc(NC(=O)C(C)(C)C)cc2)c2ccccc12
> 240 °C	CC(=O)Nc1ccc(S(=O)(=O)Nc2ccc(NC(=O)C(C)(C)C)cc2)c2ccccc12
216 °C	CC(C)(C)C(=O)Nc1ccc(NS(=O)(=O)c2ccc(N)c3ccccc23)cc1
